Where two headings read alike, the source gives them in different places. Bounds are passed on as bounds.

Assay [1] concerns the target human TYK2 (JH2domain-pseudokinase) (Homo sapiens (Human), UniProt P29597). Kind of assay: TYK2 JH2 Domain Binding Assay (KINOMEscan). The method, boiled down:
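Kds, run in duplicate, came from Hill fits (slope fixed at −1) of an 11-point 3-fold dilution series starting at 30,000 nM. Bead-retained TYK2 JH2 (aa G556–D888)–NFkB DBD fusion, DNA-tagged and expressed in HEK293 cells, was read by qPCR after 1 h room-temperature binding in 0.9% DMSO.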

In the next assay the target is Tyk2 kinase domain (DH1) (Homo sapiens (Human), UniProt P29597). Kind of assay: Tyk2 Radioactive Kinase Assay. As to conditions: read-out: Tyk2 JH1% Inhibition @ 10 μM. Type of assay: biochemical. How it is done: The Tyk2 and JAK2 radioactive kinase assay measures the percent inhibition at the Tyk2 kinase domain (DH1) and the percent inhibition at the JAK2 kinase domain (JH1). Results of the assay are expressed as percent inhibition at 10 μM.
Chain of Tyk2 kinase domain (DH1) (P29597 897-1176): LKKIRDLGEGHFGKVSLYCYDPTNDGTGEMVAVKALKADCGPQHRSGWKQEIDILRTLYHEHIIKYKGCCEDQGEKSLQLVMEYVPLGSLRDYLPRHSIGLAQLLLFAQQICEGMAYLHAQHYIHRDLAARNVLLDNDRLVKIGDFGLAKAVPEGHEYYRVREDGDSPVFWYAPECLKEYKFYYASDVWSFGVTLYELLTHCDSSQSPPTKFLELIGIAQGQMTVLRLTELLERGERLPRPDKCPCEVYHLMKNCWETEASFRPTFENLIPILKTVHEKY

For another assay, the target named is JAK2 kinase domain (JH1) (Homo sapiens (Human), UniProt O60674). As to the kind of experiment: JAK2 Radioactive Kinase Assay. Type of assay: biochemical. As to conditions: read-out: JAK2 JH1% Inhibition @ 10 μM. The method in brief: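 Each kinase domain is incubated with test compound at 10 μM. Activity is then measured radiometrically and expressed as percent inhibition relative to uninhibited enzyme.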
Chain of JAK2 kinase domain (JH1) (O60674 849-1124): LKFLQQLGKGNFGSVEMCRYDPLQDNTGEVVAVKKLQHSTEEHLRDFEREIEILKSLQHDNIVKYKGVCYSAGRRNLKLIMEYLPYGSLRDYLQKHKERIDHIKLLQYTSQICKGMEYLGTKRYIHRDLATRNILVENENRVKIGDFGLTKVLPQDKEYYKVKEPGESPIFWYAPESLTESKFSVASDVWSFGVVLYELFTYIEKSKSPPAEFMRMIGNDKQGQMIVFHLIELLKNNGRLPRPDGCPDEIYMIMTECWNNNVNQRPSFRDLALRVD

Chain of human TYK2 (JH2domain-pseudokinase) (P29597 556-888): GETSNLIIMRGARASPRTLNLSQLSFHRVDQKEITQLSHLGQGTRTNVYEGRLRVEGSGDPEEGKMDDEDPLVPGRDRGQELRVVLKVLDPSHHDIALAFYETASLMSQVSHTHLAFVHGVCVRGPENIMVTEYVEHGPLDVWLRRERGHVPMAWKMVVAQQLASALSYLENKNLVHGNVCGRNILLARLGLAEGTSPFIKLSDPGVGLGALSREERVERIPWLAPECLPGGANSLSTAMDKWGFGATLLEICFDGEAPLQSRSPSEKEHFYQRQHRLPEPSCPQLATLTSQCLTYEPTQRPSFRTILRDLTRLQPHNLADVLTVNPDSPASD

With `CNc1cc(Nc2cccc3ocnc23)nc2c(C(=O)N[C@H]3CC[C@@H]3O)cnn12` [I-858, 5-(benzo[d]oxazol-4-ylamino)-N-((1S,2S)-2-hydroxycyclobutyl)-7-(methylamino)pyrazolo[1,5-a]pyrimidine-3-carboxamide], the Kd – broadly, the equilibrium constant for the complex coming apart – in assay [1] was < 200 pM. The inhibition (in general, the share of the control response that was lost under treatment) at 10 µM on Tyk2 kinase domain (DH1) (10 μM compound, 10 μM ATP) was < 50%; at JAK2 kinase domain (JH1) (10 μM compound, 10 μM ATP) it was < 50%.
In assay [1], `CNc1cc(Nc2cc(Cl)cn(-c3cnn(C4CC4)c3C)c2=O)nc2c(C(=O)NC3CC3)cnn12` [I-325] came in with a Kd of 200 to 1000 pM. Further, the inhibition at 10 µM on Tyk2 kinase domain (DH1) (compound at 10 μM, ATP 10 μM) was < 50%; at JAK2 kinase domain (JH1) (compound at 10 μM, ATP 10 μM), < 50%.
Regarding `CNc1cc(Nc2cccn(-c3cnc(C)o3)c2=O)nc2c(C(=O)NC3CC3)cnn12` [I-717], the Kd in assay [1] is < 200 pM. Further, the inhibition at 10 µM was < 50% on Tyk2 kinase domain (DH1) (compound at 10 μM, ATP 10 μM) and < 50% at JAK2 kinase domain (JH1) (compound at 10 μM, ATP 10 μM).
For `CC(C)Oc1ncccc1Nc1cc(N)n2ncc(C(N)=O)c2n1` [I-77], the Kd in assay [1] lay in the range of 200 to 1000 pM. Further, the inhibition at 10 µM at Tyk2 kinase domain (DH1) (compound at 10 μM, ATP 10 μM) was < 50%; on JAK2 kinase domain (JH1) (compound at 10 μM, ATP 10 μM), < 50%.
For the compound `CNc1cc(Nc2cccn(-c3ccc(C(=O)N4CCCC4)cn3)c2=O)nc2c(C(=O)N[C@H]3C[C@H]3F)cnn12` [I-128], the Kd in assay [1] was < 200 pM. Further, the inhibition at 10 µM at Tyk2 kinase domain (DH1) (compound at 10 μM, ATP 10 μM) is < 50%; at JAK2 kinase domain (JH1) (compound at 10 μM, ATP 10 μM), < 50%.
For `CNc1cc(-c2cn(CCN3CCCCC3)c3ncccc23)nc2c(C(=O)NC3CC3)cnn12` [I-584, N-cyclopropyl-7-(methylamino)-5-(1-(2-(piperidin-1-yl)ethyl)-1H-pyrrolo[2,3-b]pyridin-3-yl)pyrazolo[1,5-a]pyrimidine-3-carboxamide], the Kd in assay [1] is < 200 pM. Moreover, the inhibition at 10 µM on Tyk2 kinase domain (DH1) (compound at 10 μM, ATP 10 μM) was < 50%; at JAK2 kinase domain (JH1) (compound at 10 μM, ATP 10 μM) it was < 50%.
`CNc1cc(Nc2cccn(CCOC3CC3)c2=O)nc2c(C(=O)NC3CC4(COC4)C3)cnn12` [I-576, 5-((1-(2-cyclopropoxyethyl)-2-oxo-1,2-dihydropyridin-3-yl)amino)-7-(methylamino)-N-(2-oxaspiro[3.3]heptan-6-yl)pyrazolo[1,5-a]pyrimidine-3-carboxamide] registered a Kd in assay [1] of 1000 to 10000 pM. In addition, the inhibition at 10 µM was < 50% at Tyk2 kinase domain (DH1) (compound at 10 μM, ATP 10 μM) and < 50% on JAK2 kinase domain (JH1) (compound at 10 μM, ATP 10 μM).
Take `CNc1cc(Nc2cccc(N3CCOCC3)n2)nc2c(C(=O)NC3CC3)cnn12` [I-589]: the Kd in assay [1] was < 200 pM. Also, the inhibition at 10 µM on Tyk2 kinase domain (DH1) (compound at 10 μM, ATP 10 μM) is < 50%; on JAK2 kinase domain (JH1) (compound at 10 μM, ATP 10 μM), < 50%.
Consider `CNc1cc(Nc2cc(F)cn(C3CCN(C)CC3)c2=O)nc2c(C(=O)N[C@H]3C[C@H]3F)cnn12` [I-626], for which the Kd in assay [1] was < 200 pM. The inhibition at 10 µM on Tyk2 kinase domain (DH1) (compound at 10 μM, ATP 10 μM) was < 50%; at JAK2 kinase domain (JH1) (compound at 10 μM, ATP 10 μM), < 50%.
In assay [1], `CNc1cc(Nc2cccnc2OC2CC2)nc2c(C(=O)N[C@@H]3COC[C@@H]3O)cnn12` [I-546] had a Kd of 1000 to 10000 pM. For the same compound, the inhibition at 10 µM at Tyk2 kinase domain (DH1) (compound at 10 μM, ATP 10 μM) was < 50%; at JAK2 kinase domain (JH1) (compound at 10 μM, ATP 10 μM), < 50%.
As for `CNc1cc(Nc2cccn([C@H]3CCCOC3)c2=O)nc2c(C(=O)N[C@H]3CC[C@H](O)C3)cnn12` (stereo in doubt) [I-701, N-(3-hydroxycyclopentyl)-7-(methylamino)-5-((2-oxo-1-((R)-tetrahydro 2H-pyran-3-yl)-1,2-dihydropyridin-3-yl)amino)pyrazolo[1,5-a]pyrimidine-3-carboxamide], in assay [1], the Kd fell in the range of 200 to 1000 pM. The inhibition at 10 µM at Tyk2 kinase domain (DH1) (compound at 10 μM, ATP 10 μM) was < 50%; on JAK2 kinase domain (JH1) (compound at 10 μM, ATP 10 μM), < 50%.
In assay [1], `CN(C)C(=O)c1cnc(-n2cccc(Nc3cc(N)n4ncc(C(N)=O)c4n3)c2=O)cn1` [I-38] gave a Kd of 200 to 1000 pM. The inhibition at 10 µM at Tyk2 kinase domain (DH1) (compound at 10 μM, ATP 10 μM) was < 50%; on JAK2 kinase domain (JH1) (compound at 10 μM, ATP 10 μM) it was < 50%.
For the compound `[2H]C([2H])([2H])Oc1ncccc1Nc1cc(NC)n2ncc(C(=O)N[C@H]3CC[C@H](O)C3)c2n1` [I-462], in assay [1], the Kd was < 200 pM. Besides, the inhibition at 10 µM was < 50% on Tyk2 kinase domain (DH1) (compound at 10 μM, ATP 10 μM) and < 50% at JAK2 kinase domain (JH1) (compound at 10 μM, ATP 10 μM).
With `CNc1cc(Nc2cccn(-c3nc(C)co3)c2=O)nc2c(C(=O)N[C@@H]3CC[C@H]3O)cnn12` [I-768], the Kd in assay [1] was < 200 pM. For the same compound, the inhibition at 10 µM is < 50% at Tyk2 kinase domain (DH1) (compound at 10 μM, ATP 10 μM) and < 50% at JAK2 kinase domain (JH1) (compound at 10 μM, ATP 10 μM).
Consider `CNc1cc(Nc2cccn(-c3ccc(C)nc3)c2=O)nc2c(C(=O)N[C@@H]3C[C@@H]3F)cnn12` [I-766], for which the Kd in assay [1] was < 200 pM. In addition, the inhibition at 10 µM at Tyk2 kinase domain (DH1) (compound at 10 μM, ATP 10 μM) was < 50%; at JAK2 kinase domain (JH1) (compound at 10 μM, ATP 10 μM), < 50%.
Consider `CNc1cc(-c2cn(CCN3CCOCC3)c3ncccc23)nc2c(C(=O)NC3CC3)cnn12` [I-582], for which the Kd in assay [1] was < 200 pM. Also, the inhibition at 10 µM on Tyk2 kinase domain (DH1) (compound at 10 μM, ATP 10 μM) is < 50%; at JAK2 kinase domain (JH1) (compound at 10 μM, ATP 10 μM), < 50%.
Take `CNc1cc(Nc2cccn(C3CCOCC3)c2=O)nc2c(C(=O)N[C@@H]3CC[C@@H]3O)cnn12` [I-556]: the Kd in assay [1] is < 200 pM. Besides, the inhibition at 10 µM was < 50% at Tyk2 kinase domain (DH1) (compound at 10 μM, ATP 10 μM) and < 50% on JAK2 kinase domain (JH1) (compound at 10 μM, ATP 10 μM).

These data come from patent US10508120B2, “TYK2 inhibitors and uses thereof” (Nimbus Lakshmi, Inc., priority 2017, dated 2019).
